“Also recorded” adds a separate entry of the source.
What was measured:
[1] = system: mechanical hypersensitivity; set-up: method as in PMID 30157134, PMID 32677089; details: cited from earlier work
[2] = system: p-ACC in mouse DRG neurons; assay: p-ACC immunocytochemistry in cultured DRG neurons; type: cell-based; details: 16 h; FEM-1689 10, 100, 1,000 nM; A769662 100 µM; wild-type and TMEM97KO neurons
Description: (§1) The ICC protocol was based on a previously published protocol ([76]). […] Cells were blocked with 10% normal goat serum (NGS) in PBS-triton X (0.1%). […] Antibodies were incubated at 4 °C overnight. […] It was washed with PBS twice. […] Images were analyzed using Olympus CellSens. […] Number of cells analyzed are detailed in SI Appendix, Tables S3 and S4. […]
(§2) T his BSA gradient containing the cells was centrifuged at 900g for 5 min at room temperatur e.
(§3) The pellet containing the cells was resuspended in Br ainPhys media (STEMCell #05790) containing 2% […]
(§4) 1% Gluta Max (Gibco # 350 5 0061). Hu man DRG ne uron s were plated a nd grown o n glass coverslips coate d with po ly-D-lysine (Sigma #P7405). C ultured D RG neurons were plated for 24 hours before being treated.
(§5) Methylglyoxal (Sigma- Aldrich #M0252) and F EM- 1689 were serially diluted in media.
(§6) Mouse samples - DRG cultures […]
(§7) anesthesia and decapitated. […]
(§8) section above with minor differences.
(§9) Mouse DRG neurons were grown in
(§10) SAS-0132 and DKR-1677 were […]
(§11) dissolved in 100% DMSO to a final concentr ation of 200mM and stored at - 20 °C. and DKR-1677 were serially diluted in media. Untreated media was completely replaced with media containing each compound. […]
(§12) Slides were […]
incubated with 1:2 diluted hydrogen peroxide in distilled water for 10 min at r oom temper ature and washed twice in distilled water. […]

retinal ganglion cells = system: retinal ganglion cells; set-up: method as in PMID 36456686; details: ischemia/reperfusion injury; cited from earlier work
[3] = system: models of traumatic brain injury (TBI); details: blast injury and controlled cortical impact models; cited from earlier work
[4] = system: p-eIF2α in mouse DRG neurons; assay: p-eIF2α immunocytochemistry in cultured DRG neurons; type: cell-based; details: 16 h; for phosphorylation of eIF2α: wild-type mouse DRG neurons, 10, 30, 100, 300 nM; for p-eIF2α levels: ISRIB 200 nM
Description: as §1, §2, §3, §4, §5, §6, §7, §8, §9, §10, §11, §12
(§13) incubated with 1:2 diluted hydrogen peroxide in distilled water for 10 min at r oom temper ature and washed twice in distilled water. The protease IV was applied to each section and incubated for 5 min at room temperature. Slides were w ashed twice in 1X PBS and RNA scope was performed immediately. A mixture of probes - Tmem97, Scn10a, and Fabp7 – was hybridized for 2 hours at 40 °C in a humidity control tray

BiP in mouse DRG neurons = assay: BiP immunocytochemistry in cultured DRG neurons; type: cell-based; details: ISRIB 200 nM
Description: as §1, §2, §3, §4, §5, §6, §7, §8, §9, §10, §11, §12, §13

neurite outgrowth = system: neurite outgrowth; set-up: method as in PMID 31836389; details: cited from earlier work
[5] = system: MGO-induced mechanical hypersensitivity, wild-type mice; assay: Methylglyoxal-induced mechanical hypersensitivity; type: in vivo, mouse
[6] = system: p-eIF2α in human DRG neurons; assay: p-eIF2α immunocytochemistry in cultured human DRG neurons; type: cell-based; details: MGO 1 µM
[7] = system: mouse model of neuropathic pain; set-up: method as in PMID 28644012, PMID 27926996; details: cited from earlier work; for mechanical hypersensitivity / antinociceptive effect: mouse neuropathic pain model
[8] = system: animal models of age-related neurodegeneration; set-up: method as in PMID 27926996, PMID 29426225; details: cited from earlier work
[9] = system: neuronal toxicity induced by mutant huntingtin protein; set-up: method as in PMID 36108101; details: model of Huntington's disease; cited from earlier work
BZP Rat Brain = assay: PDSP competitive binding assay; details: dose response curve

## O=C(O)CCCc1ccccc1 [4-PBA]
[1]
  duration of efficacy on mechanical hypersensitivity in vivo: hours

## N#Cc1c(O)c2c(-c3ccc(-c4ccccc4O)cc3)csc2[nH]c1=O [A769662, reference compound]
[2]
  p-ACC levels: elevate; also recorded: increased p-ACC levels in both wild-type and TMEM97KO neurons

## CCCN1CCN(c2ccc3c(c2)C2CC3CCN2C(=O)OCc2ccccc2)CC1 (stereo not shown) [DKR-1677, reference compound]
Retinal ganglion cells
  protection of retinal ganglion cells: protects retinal ganglion cells from ischemia/reperfusion injury
[3]
  protection in traumatic brain injury: protective in two different models of traumatic brain injury
[4]
  phosphorylation of eIF2α: promote the phosphorylation of eIF2α; also recorded: stimulate the ISR by promoting the phosphorylation of eIF2α

## O=C(COc1ccc(Cl)cc1)NC1CCC(NC(=O)COc2ccc(Cl)cc2)CC1 (stereo not shown) [ISRIB, reference compound]
[1]
  duration of efficacy on mechanical hypersensitivity in vivo: hours
BiP in mouse DRG neurons; TMEM97KO mouse DRG neurons
  BiP levels: reduce BiP levels
BiP in mouse DRG neurons; wild-type mouse DRG neurons
  BiP levels: reduce BiP levels
Neurite outgrowth
  neurite outgrowth: enhances neurite outgrowth
[4]; TMEM97KO mouse DRG neurons
  p-eIF2α levels: failed to change p-eIF2α immunoreactivity
[4]; wild-type mouse DRG neurons
  p-eIF2α levels: reduced p-eIF2α levels in wild-type neurons
[5]; ISRIB 2.5 mg/kg IP
  time after drug administration at which antiallodynic effects were observed: 3 h
[5]; MGO 20 ng intraplantar, FEM-1689 20 mg/kg IV or ISRIB 2.5 mg/kg IP 24 h after MGO
  MGO-induced mechanical hypersensitivity: transient; also recorded: reverted to a hypersensitive state 24 h after injection

## CC(=O)C=O [MGO, Methylglyoxal, reference compound]
[6]
  p-eIF2α levels: increased p-eIF2α levels

## CN1CCN(c2ccc3c(c2)C2CC3CCN2C(=O)OCc2ccccc2)CC1 (stereo not shown) [SAS-0132]
[4]
  phosphorylation of eIF2α: promote the phosphorylation of eIF2α; also recorded: stimulate the ISR by promoting the phosphorylation of eIF2α
[7]
  effect on the antinociceptive effects of UKH-1114: inhibit the antinociceptive effects of UKH-1114; also recorded: blocks the antinociceptive activity of UKH-1114
  mechanical hypersensitivity / antinociceptive effect: has no antinociceptive effect on its own
[8]
  neuroprotection and cognitive performance: neuroprotective and improves cognitive performance

## OCCCN1CCCC2CC1c1cc(-c3ccc(C(F)(F)F)cc3)ccc12 (stereo not shown) [UKH-1114]
[9]
  neuronal toxicity: reduces neuronal toxicity
[7]
  mechanical hypersensitivity / antinociceptive effect: alleviates mechanical hypersensitivity following nerve injury

## O=C1CN=C(c2ccccc2Cl)c2cc([N+](=O)[O-])ccc2N1 [clonazepam, reference compound]
BZP Rat Brain; given as LogKi with negative sign
  LogKi, BZP Rat Brain: -8.89
BZP Rat Brain; read-out: Ki, BZP Rat Brain
  Ki: 1.29 nM
